Data on four compounds can be found in patent US6589916B1, “Method and composition for treating and promoting the growth of plants” (Amvac Chemical Corporation, priority 1999, dated 2003).

Series [1] concerns live grass (Bermudagrass (Common, Midiron, and Ormond), Tifway II, Tifway 419, Tifdwarf, and Tifgreen 328 grasses). Description: Methyldithiocarbamate trials: spray treatment of live golf course grass plots, leaf appearance scored. Details: key to score for appearance of the grass leaves: 0: burning of leaf tissue; 1: bronzing of leaf tissue; 2: burning of the tip of the leaf tissue; 3: No burning or change in color of the leaf tissue; 4: good greening of the leaf tissue; 5: excellent greening of the leaf tissue. The format is in vivo. On the procedure: The effect of the application of methylammonium methyldithiocarbamate to live grass was determined in the following manner. Dilute aqueous solutions of three salts of the same dithiocarbamic acid derivative were prepared: methylammonium methyldithiocarbamate, sodium methyldithiocarbamate, and potassium methyldithiocarbamate. The solutions were prepared by mixing the dithiocarbamic acid derivative with water to achieve a concentration of between about 1.2 and 3.5% by weight.
Three plots of grass of substantially equal type, quality, color, and size were selected at each of several golf courses throughout the state of Florida. The grass at these courses consisted of one or a combination of Bermudagrass (Common, Midiron, and Ormond), Tifway II, Tifway 419, Tifdwarf, and Tifgreen 328 grasses. To each of these plots one of the methyldithiocarbamate salts were applied via an ordinary above-ground spraying system in an amount equivalent to between about 0.5 to 40 lbs of methyldithiocarbamate salt per acre of soil. All applications were watered in with 1/2 inch of water within 20 minutes of treatment, which moved the dithiocarbamic acid derivative into and slightly below the root zone of the grass.
The results of treating each plot with the methyldithiocarbamate salts were evaluated from 1 to 2 weeks after treatment by examining the appearance of the grass leaves. A score was assigned to each plot according to the following scale: 0=burning of leaf tissue; 1=bronzing of leaf tissue; 2=burning of the tip of the leaf tissue; 3=No burning or change in color of the leaf tissue; 4=good greening of the leaf tissue; 5=excellent greening of the leaf tissue. Where two values were assigned, the plot contained a substantial number of grass leaves of one score and a substantial number of the other score.

In another series the test system is Morning Glory. As to conditions: stated in U.S. Pat. No. 2,766,554; cited from earlier work.
The conditions of series [2]: four hours ultraviolet light from an arc; U.S. Pat. No. 2,835,625; cited from earlier work.
[3] abbreviates: 1. Grenelefe Resort, treated February 1998, evaluation 2 weeks after treatment.
The mark [4] stands for this setting: 1. Grenelefe Resort, treated January 1998, evaluation 2 weeks after treatment.
The mark [5] stands for this setting: 1. Grenelefe Resort, treated March 1998, evaluation 2 weeks after treatment.
[6] abbreviates: 2. Long Boat Key, treated April 1998, evaluation 1 week after treatment.
[7] abbreviates: 2. Long Boat Key, treated February 1998, evaluation 2 weeks after treatment.
Where [8] appears, read: 2. Long Boat Key, treated March 1998, evaluation 2 weeks after treatment.
Where [9] appears, read: 3. Indian River Club, treated April 1998, evaluation 1 week after treatment.
Setting [10] is: 3. Indian River Club, treated March 1998, evaluation 2 weeks after treatment.
Setting [11] is: 3. Indian River Club, treated May 1998, evaluation 1 week after treatment.
Setting [12] is: 4. La Cita C.C., treated June 1998, evaluation 1 week after treatment.
Where [13] appears, read: 4. La Cita C.C., treated March 1998, evaluation 1 week after treatment.
[14] abbreviates: 4. La Cita C.C., treated September 1998, evaluation 1 week after treatment.
The mark [15] stands for this setting: 5. Wellington C.C., treated April 1998, evaluation 2 weeks after treatment.
[16] abbreviates: 6. Dodgertown C.C., treated April 1998, evaluation 1 week after treatment.
[17] abbreviates: 6. Dodgertown C.C., treated May 1998, evaluation 1 week after treatment.
Setting [18] is: 7. Westchester C.C., treated April 1998, evaluation 1 week after treatment.
[19] abbreviates: 8. President Club, treated July 1998, evaluation 1 week after treatment.
[20] abbreviates: 8. President Club, treated May 1998, evaluation 1 week after treatment.
[21] abbreviates: 9. Vero Beach C.C., treated June 1998, evaluation 1 week after treatment.
[22] abbreviates: 10. Admirals Cove, treated July 1998, evaluation 1 week after treatment.
Where [23] appears, read: 11. Moorings C.C., treated August 1998, evaluation 1 week after treatment.
[24] abbreviates: 12. Hawks Nest C.C., treated August 1998, evaluation 1 week after treatment.
Setting [25] is: 13. Woodmont C.C., treated June 1998, evaluation 1 week after treatment.
Setting [26] is: 13. Woodmont C.C., treated September 1998, evaluation 1 week after treatment.

Consider `CN.CNC(=S)S` [METHYL AMMONIUM, methylammonium methyldithiocarbamate], for which the “score for appearance of the grass leaves” value is reported as 3-4 in series [1] (setting [3]); 4 in series [1] (setting [4]); 4 in series [1] (setting [5]); 4 in series [1] (setting [6]); 4 in series [1] (setting [7]); 4 in series [1] (setting [8]). For the same compound, the “score for appearance of the grass leaves” value in series [1] (setting [9]) is reported as 4; in series [1] (setting [10]), 4; in series [1] (setting [11]), 4; in series [1] (setting [12]), 5; in series [1] (setting [13]), 5; in series [1] (setting [14]), 5. Moreover, the “score for appearance of the grass leaves” value is 5 in series [1] (setting [15]); 4 in series [1] (setting [16]); 4 in series [1] (setting [17]); 4 in series [1] (setting [18]); 5 in series [1] (setting [19]); 5 in series [1] (setting [20]). For the same compound, the “score for appearance of the grass leaves” value is recorded as 4-5 in series [1] (setting [21]); 4 in series [1] (setting [22]); 5 in series [1] (setting [23]); 5 in series [1] (setting [24]); 5 in series [1] (setting [25]); 5 in series [1] (setting [26]). Moreover, the “appearance of the grass leaf tissue, in words” value in series [1] (Grenelefe Resort, February) was “improved only marginally in color”. For the same compound, the “appearance of the grass leaf tissue, summary in words” value in series [1] (all treated areas of Table 2) is listed as “either good or excellent greening of the leaf tissue”. For the same compound, in series [1] (all trials of Table 2), the “results compared with potassium methyldithiocarbamate” value is reported as “far better results than the potassium methyldithiocarbamate”. Besides, the “results compared with sodium methyldithiocarbamate” value in series [1] (all trials of Table 2) is on record as “better results than the sodium methyldithiocarbamate”. Besides, the “eradication of Morning Glory” value in the series with Morning Glory is given as “excellent eradicator of Morning Glory”.
Take `CNC(=S)[S-].[K+]` [POTASSIUM, potassium methyldithiocarbamate]: the “score for appearance of the grass leaves” value in series [1] (setting [3]) is on record as 1; in series [1] (setting [4]) it was 0; in series [1] (setting [5]) it was 0-1; in series [1] (setting [6]), 1-2; in series [1] (setting [7]), 1; in series [1] (setting [8]), 1-2. The “score for appearance of the grass leaves” value is 0-1 in series [1] (setting [9]); 1 in series [1] (setting [10]); 1-2 in series [1] (setting [11]); 1 in series [1] (setting [12]); 2 in series [1] (setting [13]); 2 in series [1] (setting [14]). The “score for appearance of the grass leaves” value in series [1] (setting [15]) is 1; in series [1] (setting [16]) it was 0; in series [1] (setting [17]) it was 1-2; in series [1] (setting [18]) it was 1; in series [1] (setting [19]), 2-3; in series [1] (setting [20]), 0. Also, the “score for appearance of the grass leaves” value was 1 in series [1] (setting [21]); 1-2 in series [1] (setting [22]); 1 in series [1] (setting [23]); 0 in series [1] (setting [24]); 1-2 in series [1] (setting [25]); 2-3 in series [1] (setting [26]).
With `CNC(=S)[S-].[Na+]` [SODIUM, sodium methyldithiocarbamate], the “score for appearance of the grass leaves” value in series [1] (setting [3]) is 3; in series [1] (setting [4]), 3; in series [1] (setting [5]), 3-4; in series [1] (setting [6]) it was 3; in series [1] (setting [7]), 2; in series [1] (setting [8]), 3. Besides, the “score for appearance of the grass leaves” value is reported as 3 in series [1] (setting [9]); 3 in series [1] (setting [10]); 3-4 in series [1] (setting [11]); 3-4 in series [1] (setting [12]); 4 in series [1] (setting [13]); 4 in series [1] (setting [14]). Further, the “score for appearance of the grass leaves” value was 3 in series [1] (setting [15]); 3 in series [1] (setting [16]); 3-4 in series [1] (setting [17]); 3 in series [1] (setting [18]); 4 in series [1] (setting [19]); 4 in series [1] (setting [20]). The “score for appearance of the grass leaves” value in series [1] (setting [21]) is listed as 3-4; in series [1] (setting [22]), 3-4; in series [1] (setting [23]), 4; in series [1] (setting [24]) it was 4; in series [1] (setting [25]) it was 4; in series [1] (setting [26]), 4.
Take `CC(C)OC(=O)SC(=S)N(C)C` [isopropoxycarbonyl dimethyldithiocarbamate]: the “biological activity after ultraviolet light treatment” value in series [2] was “without losing any biological activity”.
